Legend:
human EP4 receptor [1] = target: T1, human EP4 receptor (Homo sapiens, UniProt P35408); test: Measurement of cAMP responses by Homogeneous Time Resolved Fluorescence (Test 2); format: cell-based; parameters: expressed in transfected cells; conditions: for inhibition at 10 µM: HEK293, PGE2 1 nM, HEK-293 cells stably expressing human EP4, read-out: Results of Test 2 (Functional assay, antagonist % inh); for Results of Test 2 (Functional assay, antagonist % inh): at 10 μM, PGE2 1 nM, HEK-293 cells stably expressing human EP4
Experimental: Test 2: Measurement of cAMP Responses by Homogeneous Time Resolved Fluorescence
cAMP measurements on HEK-293 cells that stably expressed human EP4 receptors were performed by using a system based on Homogeneous Time Resolved Fluorescense (HTRF). This technology allows the direct measurement of cAMP in living cells. The principle of this assay is based on competition between cAMP produced by cells and cAMP-d2 conjugate for the binding with monoclonal anti-cAMP-cryptate conjugate. The HTRF cAMP kit from CisBio was used according to the manufacturer's directions. The experimental procedure was performed as stated below.
Suspended cells (30,000 cells per well) were added to 96-well culture plates in 30 μl of Optimem supplemented with 500 μM IBMX. Compounds were then added in 10 μl of stimulation buffer and incubated at 25° C. for 30 minutes followed by 10 μl of PGE2 to a final concentration of 1 nM. After 30 minutes at 25° C., the reaction was stopped lysing the cells with a mixture of 25 μl of cryptate and 25 μl of cAMP-d2 prepared in the lysis buffer supplied by the manufacturer. Plates were incubated for an additional hour at room temperature and read at 665 nm/620 nm using an UltraEvolution Plate reader (Tecan).
Antagonist percentage inhibition was calculated relating compounds activity to the 0% inhibition of the wells incubated with 1 nM PGE2 alone and 100% inhibition of the wells incubated with 1 nM PGE2 plus 1 μM of the reference antagonist.

human EP4 receptor [2] = target: T1, human EP4 receptor; test: Human EP4 receptor radioligand binding assay (Test 1); parameters: expressed in transfected cells; host or cells: HEK-293 cell membranes; conditions: [3H]-PGE2 1 nM, transfected HEK-293 cell membranes; for inhibition at 10 µM: read-out: Results of Test 1 (Binding assay, % inh); for Results of Test 1 (Binding assay, % inh): at 10 μM
Experimental: Test 1: Human EP4 Receptor Radioligand Binding Assay
To investigate binding properties of EP4 receptor ligands to human EP4 receptor, transfected HEK-293 cell membranes and [3H]-PGE2 (Perkin Elmer) were used. In 96-well plates the assay was carried out with a total reaction volume of 250 μl, containing 25 μl of membrane suspension (30 μg protein/well), 25 μl of [3H]-PGE2 (1 nM) in either absence or presence of 25 μl of either buffer or PGE2 (10 μM) for total and non-specific binding, respectively. Binding buffer contained 25 mM MES, 10 mM MgCl2 and 1 mM EDTA at pH 6.0. Plates were incubated at 25° C. for 120 minutes. After the incubation period, 200 μl of incubate were transferred to MultiScreen HTS, FB plates (Millipore), filtered and plates were washed 6 times with ice-cold 10 mM MES, 0.01% BSA at pH 6.0. Filters were dried and counted in a MicroBeta scintillation counter (Perkin-Elmer) using EcoScint liquid scintillation cocktail.
Percentage inhibition was calculated relating compounds activity to the 0% inhibition of the wells incubated with 1 nM [3H]-PGE2 alone (total binding) and 100% inhibition of the wells incubated with 1 nM [3H]-PGE2 plus 10 μM PGE2 (non-specific binding).

T1 sequence (P35408 whole entry): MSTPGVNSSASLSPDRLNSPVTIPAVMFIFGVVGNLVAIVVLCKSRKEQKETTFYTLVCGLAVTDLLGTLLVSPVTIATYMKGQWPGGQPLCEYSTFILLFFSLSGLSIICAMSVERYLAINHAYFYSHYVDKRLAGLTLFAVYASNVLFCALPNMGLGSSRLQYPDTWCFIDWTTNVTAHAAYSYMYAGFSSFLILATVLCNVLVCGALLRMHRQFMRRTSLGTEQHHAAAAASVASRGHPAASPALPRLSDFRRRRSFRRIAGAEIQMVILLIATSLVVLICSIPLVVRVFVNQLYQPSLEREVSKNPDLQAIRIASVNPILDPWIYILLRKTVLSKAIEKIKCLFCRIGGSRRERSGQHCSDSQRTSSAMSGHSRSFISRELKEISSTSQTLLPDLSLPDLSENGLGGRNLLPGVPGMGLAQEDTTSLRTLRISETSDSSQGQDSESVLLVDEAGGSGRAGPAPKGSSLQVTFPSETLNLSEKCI

Row | SMILES | inhibition at 10 µM (human EP4 receptor [1]) [%] | inhibition at 10 µM (human EP4 receptor [2]) [%] | Results of Test 2 (Functional assay, antagonist % inh) (human EP4 receptor [1]) | Results of Test 1 (Binding assay, % inh) (human EP4 receptor [2])
1 | O=C(O)c1cc(Cl)c(NC(=O)c2cc(OCc3ccc(Cl)cc3F)ccc2Cl)c(Cl)c1 [Example 36, 3,5-Dichloro-4-(2-chloro-5-(4-chloro-2-fluorobenzyloxy)benzamido)benzoic acid] | > 75 | > 75 | – | –
2 | COc1cccc(-c2ccc(C)c(C(=O)Nc3c(C)cc(C(=O)O)cc3C)c2)c1 [Example 3, 4-(3′-Methoxy-4-methylbiphenyl-3-ylcarboxamido)-3,5-dimethylbenzoic acid] | – | – | $ (% inh >75) | # (% inh >75)
3 | COc1cc(Cl)cc(-c2ccc(C)c(C(=O)Nc3c(C)cc(C(=O)O)cc3C)c2)c1 [Example 59, 4-(3′-Chloro-5′-methoxy-4-methylbiphenyl-3-ylcarboxamido)-3,5-dimethylbenzoic acid] | – | – | $ (% inh >75) | # (% inh >75)
4 | Cc1ccc(-c2cccc(C(N)=O)c2)cc1C(=O)Nc1c(C)cc(C(=O)O)cc1C [Example 13, 4-(3′-Carbamoyl-4-methylbiphenyl-3-ylcarboxamido)-3,5-dimethylbenzoic acid] | – | – | $ (% inh >75) | # (% inh >75)
5 | O=C(O)c1cc(Cl)c(NC(=O)c2nc(-c3cccc(Cl)c3)ccc2Cl)c(Cl)c1 [Example 47, 3,5-Dichloro-4-(3-chloro-6-(3-chlorophenyl)picolinamido)benzoic acid] | > 75 | > 75 | – | –
6 | Cc1ccc(-c2cccc(CO)c2)cc1C(=O)Nc1c(C)cc(C(=O)O)cc1C [Example 9, 4-(3′-(Hydroxymethyl)-4-methylbiphenyl-3-ylcarboxamido)-3,5-dimethylbenzoic acid] | – | – | $ (% inh >75) | # (% inh >75)
7 | O=C(O)c1cc(Cl)c(NC(=O)c2cc(-c3cccc(CO)c3)ccc2Cl)c(Cl)c1 [Example 16, 3,5-Dichloro-4-(4-chloro-3′-(hydroxymethyl)biphenyl-3-ylcarboxamido)benzoic acid] | – | – | $ (% inh >75) | # (% inh >75)
8 | Cc1ccc(-c2cccc(Cl)c2)cc1C(=O)Nc1c(C)cc(C(=O)O)cc1C [Example 20, 4-(3′-Chloro-4-methylbiphenyl-3-ylcarboxamido)-3,5-dimethylbenzoic acid] | – | – | $ (% inh >75) | # (% inh >75)
9 | O=C(O)c1cc(Cl)c(NC(=O)c2cc(OCc3ccc(F)cc3F)ccc2Cl)c(Cl)c1 [Example 35, 3,5-Dichloro-4-(2-chloro-5-(2,4-difluorobenzyloxy)benzamido)benzoic acid] | > 75 | > 75 | – | –
10 | Cc1cc(C(=O)O)cc(Cl)c1NC(=O)c1cc(-c2cccc(Cl)c2)ccc1Cl [Example 22, 3-Chloro-4-(3′,4-dichlorobiphenyl-3-ylcarboxamido)-5-methylbenzoic acid] | – | – | $ (% inh >75) | # (% inh >75)
11 | Cc1ccc(-c2cc(F)ccc2F)cc1C(=O)Nc1c(C)cc(C(=O)O)cc1C [Example 11, 4-(2′,5′-Difluoro-4-methylbiphenyl-3-ylcarboxamido)-3,5-dimethylbenzoic acid] | – | – | $ (% inh >75) | # (% inh >75)

Source: patent publication US9926276B2, “Substituted benzamides with activity towards EP4 receptors” (DRACONIS PHARMA, S.L., priority 2013, dated 2018)
